The values below come from ChEMBL document CHEMBL4340507, “Identification of an indol-based multi-target kinase inhibitor through phenotype screening and target fishing using inverse virtual screening approach” (Eur J Med Chem, 2019).

In series [1] the test system is PC-3. Kind of series: Antiproliferative activity against human PC3 cells assessed as decrease in cell viability measured after 72 hrs by MTT assay. Type of series: functional, cell-based. Particulars: PC-3, 72 h. (Tetrazolium assays rely on reduction of a dye to a coloured formazan, in cell work by metabolically active cells.)
Series [2] relates to Jurkat. Kind of series: Antiproliferative activity against human Jurkat T cells assessed as decrease in cell viability measured after 24 to 72 hrs by MTT assay. Type of series: functional, cell-based.
Series [3] relates to IEC-6. Kind of series: Cell cycle arrest in rat IEC-6 cells assessed as accumulation at G0/G1-phase at 0.1 to 0.6 uM after 24 hrs by propidium iodide staining-based FACS analysis. Particulars: iec-6, 24 h. Format: ADME. On the technique in general: Flow cytometry measures light scatter and fluorescence of single cells or particles in a stream.
The target in series [4] is SRSF protein kinase 1 (Homo sapiens, UniProt Q96SB4). Kind of series: Inhibition of recombinant human full-length N-terminal GST-His6-fused SRPK1 (M1 to S655 residues) expressed in Sf9 insect cells using RS-peptide as substrate measured after 60 mins in presence of [gamma-33P]-ATP by scintillation counting method.
Series [5] deals with Fibroblast growth factor receptor 3 (Homo sapiens, UniProt P22607). Kind of series: Inhibition of recombinant human wild-type N-terminal GST-His6-fused FGFR3 C-terminal domain (R397 to T806 residues) expressed in Sf9 insect cells using TRK-C derived peptide as substrate measured after 60 mins in presence of [gamma-33P]-ATP by scintillation counting method.
Series [6] addresses BDNF/NT-3 growth factors receptor (Homo sapiens, UniProt Q16620). Kind of series: Inhibition of recombinant human N-terminal GST-His6-fused TRKB C-terminal domain (V526 to G838 residues) expressed in Sf9 insect cells using Poly(Glu:Tyr)4:1 as substrate measured after 60 mins in presence of [gamma-33P]-ATP by scintillation counting method.
Series [7] addresses Receptor tyrosine-protein kinase erbB-4 (Homo sapiens, UniProt Q15303). Kind of series: Inhibition of recombinant human N-terminal GST-His6-fused ERBB4 C-terminal domain (R676 to V1307 residues) expressed in Sf9 cells using Poly(Glu:Tyr)4:1 as substrate measured after 60 mins in presence of [gamma-33P]-ATP by scintillation counting method.
In series [8] the target is Epidermal growth factor receptor (Homo sapiens, UniProt P00533). Kind of series: Inhibition of recombinant human wild-type N-terminal GST-His6-fused EGFR C-terminal domain (H672 to A1210) expressed in Sf9 insect cells using Poly(Glu:Tyr)4:1 as substrate measured after 60 mins in presence of [gamma-33P]-ATP by scintillation counting method.
Series [9] has as its target High affinity nerve growth factor receptor (Homo sapiens, UniProt P04629). Kind of series: Inhibition of recombinant human wild-type N-terminal GST-His6-fused TRKA C-terminal domain (G443 to G796 residues) expressed in Sf9 insect cells using TRK-C derived peptide as substrate measured after 60 mins in presence of [gamma-33P]-ATP by scintillation counting method.
The target in series [10] is Mitogen-activated protein kinase kinase kinase 10 (Homo sapiens, UniProt Q02779). Kind of series: Inhibition of recombinant human MAP3K10 measured after 60 mins in presence of [gamma-33P]-ATP by scintillation counting method.
In series [11] the target is Fibroblast growth factor receptor 2 (Homo sapiens, UniProt P21802). Kind of series: Inhibition of recombinant human N-terminal GST-His6-fused FGFR2 C-terminal domain (R400 to T822 residues) expressed in Sf9 insect cells using TRK-C derived peptide as substrate measured after 60 mins in presence of [gamma-33P]-ATP by scintillation counting method.
Series [12] addresses Vascular endothelial growth factor receptor 1 (Homo sapiens, UniProt P17948). Kind of series: Inhibition of recombinant human N-terminal GST-tagged VEGFR1 C-terminal domain (K784 to I1338 residues) expressed in Sf9 insect cells using Poly(Glu:Tyr)4:1 as substrate measured after 60 mins in presence of [gamma-33P]-ATP by scintillation counting method.
Series [13] concerns the target Mitogen-activated protein kinase kinase kinase 1 (Homo sapiens, UniProt Q13233). Kind of series: Inhibition of recombinant human N-terminal 4xFLAG-tagged/C-terminal His8 fused MAP3K1 C-terminal domain (M1193 to W1512 residues) expressed in Sf9 insect cells using Bio-RS-Peptide as substrate measured after 60 mins in presence of [gamma-33P]-ATP by scintillation counting method.

Series [14] addresses Tyrosine-protein kinase ABL1 (Homo sapiens, UniProt P00519). Kind of series: Inhibition of recombinant human wild-type N-terminal GST-His6-fused ABL1 internal domain (P118 to S535 residues) expressed in Sf9 insect cells using Poly(Ala,Glu,Lys,Tyr)6:2:5:1 as substrate measured after 60 mins in presence of [gamma-33P]-ATP by scintillation counting method.
Series [15] addresses Mitogen-activated protein kinase 7 (Homo sapiens, UniProt Q13164). Kind of series: Inhibition of recombinant human N-terminal FLAG-tagged/C-terminal His8 fused ERK5 internal fragment domain (L5 to Q397 residues) expressed in Sf9 insect ells using RBER-CHKtide as substrate measured after 60 mins in presence of [gamma-33P]-ATP by scintillation counting method.
Series [16] deals with RAC-beta serine/threonine-protein kinase (Homo sapiens, UniProt P31751). Kind of series: Inhibition of recombinant human full-length N-terminal GST-His6-fused AKT2 (M1 to E481 residues) expressed in Sf9 insect cells using GSK3-derived peptide as substrate measured after 60 mins in presence of [gamma-33P]-ATP by scintillation counting method.
For series [17], the target named is Casein kinase II subunit alpha (Homo sapiens, UniProt P68400). Kind of series: Inhibition of recombinant human full-length N-terminal GST-fused CK2-alpha1 (M1 to Q391 residues) expressed in Sf9 insect cells using casein as substrate measured after 60 mins in presence of [gamma-33P]-ATP by scintillation counting method.
Series [18] has as its target Focal adhesion kinase 1 (Homo sapiens, UniProt Q05397). Kind of series: Inhibition of recombinant human N-terminal GST-fused FAK (2 to 1052 residues) expressed in Sf9 insect cells using Poly(Glu/Tyr)4:1 as substrate measured after 60 mins in presence of [gamma-33P]-ATP by scintillation counting method.
Series [19] relates to HeLa. Kind of series: Cell cycle arrest in human HeLa cells assessed as accumulation at G0/G1-phase at 0.1 to 0.6 uM after 24 hrs by propidium iodide staining-based FACS analysis. Type of series: functional.
Series [20] relates to HeLa. Kind of series: Induction of ROS generation in human HeLa cells at 0.1 to 0.6 uM measured after 24 hrs by H2DC-DA probe-based FACS analysis. Type of series: functional, cell-based.
Series [21] concerns HeLa. Kind of series: Induction of apoptosis in human HeLa cells assessed as increase in caspase 3 level at 0.1 to 0.6 uM after 24 hrs by FACS analysis. Type of series: functional, cell-based.
For series [22], the system named is IEC-6. Kind of series: Induction of apoptosis in rat IEC-6 cells assessed as increase in caspase 3 level at 0.1 to 0.6 uM after 24 hrs by FACS analysis. Type of series: cell-based. Particulars: iec-6, 24 h.
The subject of series [23] is HeLa. Kind of series: Induction of apoptosis in human HeLa cells assessed as effect on PARP level at 0.1 to 0.6 uM after 24 hrs by FACS analysis. Format: functional, cell-based.
Series [24] deals with IEC-6. Kind of series: Induction of apoptosis in rat IEC-6 cells assessed as effect on PARP level at 0.1 to 0.6 uM after 24 hrs by FACS analysis. Type of series: cell-based. Particulars: iec-6, 24 h.

Activity calls are given as the source filed them. No cut-off for these calls is given here.

Tyrosine-protein kinase ABL1, sequence (P00519 whole entry, the tested form may be a part): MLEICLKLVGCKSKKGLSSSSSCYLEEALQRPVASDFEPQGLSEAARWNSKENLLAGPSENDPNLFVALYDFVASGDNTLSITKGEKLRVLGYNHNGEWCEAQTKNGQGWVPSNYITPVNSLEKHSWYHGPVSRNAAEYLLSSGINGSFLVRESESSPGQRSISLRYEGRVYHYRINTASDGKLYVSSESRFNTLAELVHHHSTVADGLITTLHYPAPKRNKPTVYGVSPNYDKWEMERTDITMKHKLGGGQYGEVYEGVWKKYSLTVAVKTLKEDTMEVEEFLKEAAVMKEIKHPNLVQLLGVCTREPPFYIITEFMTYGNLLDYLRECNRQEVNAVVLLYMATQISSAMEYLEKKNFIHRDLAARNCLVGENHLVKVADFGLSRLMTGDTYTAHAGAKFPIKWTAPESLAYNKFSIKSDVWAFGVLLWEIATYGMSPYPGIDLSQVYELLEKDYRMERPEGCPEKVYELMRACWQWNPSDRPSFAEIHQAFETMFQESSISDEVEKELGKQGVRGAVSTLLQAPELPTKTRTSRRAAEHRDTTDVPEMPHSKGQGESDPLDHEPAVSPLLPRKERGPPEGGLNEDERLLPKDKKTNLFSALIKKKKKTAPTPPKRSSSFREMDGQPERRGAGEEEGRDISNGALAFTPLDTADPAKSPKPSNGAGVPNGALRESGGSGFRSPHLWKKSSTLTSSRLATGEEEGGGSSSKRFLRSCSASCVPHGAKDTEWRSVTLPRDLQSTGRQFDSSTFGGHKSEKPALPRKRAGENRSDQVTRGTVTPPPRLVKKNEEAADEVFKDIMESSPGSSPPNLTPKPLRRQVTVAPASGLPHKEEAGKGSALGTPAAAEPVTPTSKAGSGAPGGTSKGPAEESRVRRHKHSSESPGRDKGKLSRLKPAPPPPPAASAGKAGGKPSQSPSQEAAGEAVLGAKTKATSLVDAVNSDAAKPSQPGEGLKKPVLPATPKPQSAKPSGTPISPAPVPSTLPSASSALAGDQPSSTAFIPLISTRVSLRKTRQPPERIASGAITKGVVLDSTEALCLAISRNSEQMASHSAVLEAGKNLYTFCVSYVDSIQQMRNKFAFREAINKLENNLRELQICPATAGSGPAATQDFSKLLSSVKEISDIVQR
Mitogen-activated protein kinase kinase kinase 1, sequence (Q13233 whole entry, the tested form may be a part): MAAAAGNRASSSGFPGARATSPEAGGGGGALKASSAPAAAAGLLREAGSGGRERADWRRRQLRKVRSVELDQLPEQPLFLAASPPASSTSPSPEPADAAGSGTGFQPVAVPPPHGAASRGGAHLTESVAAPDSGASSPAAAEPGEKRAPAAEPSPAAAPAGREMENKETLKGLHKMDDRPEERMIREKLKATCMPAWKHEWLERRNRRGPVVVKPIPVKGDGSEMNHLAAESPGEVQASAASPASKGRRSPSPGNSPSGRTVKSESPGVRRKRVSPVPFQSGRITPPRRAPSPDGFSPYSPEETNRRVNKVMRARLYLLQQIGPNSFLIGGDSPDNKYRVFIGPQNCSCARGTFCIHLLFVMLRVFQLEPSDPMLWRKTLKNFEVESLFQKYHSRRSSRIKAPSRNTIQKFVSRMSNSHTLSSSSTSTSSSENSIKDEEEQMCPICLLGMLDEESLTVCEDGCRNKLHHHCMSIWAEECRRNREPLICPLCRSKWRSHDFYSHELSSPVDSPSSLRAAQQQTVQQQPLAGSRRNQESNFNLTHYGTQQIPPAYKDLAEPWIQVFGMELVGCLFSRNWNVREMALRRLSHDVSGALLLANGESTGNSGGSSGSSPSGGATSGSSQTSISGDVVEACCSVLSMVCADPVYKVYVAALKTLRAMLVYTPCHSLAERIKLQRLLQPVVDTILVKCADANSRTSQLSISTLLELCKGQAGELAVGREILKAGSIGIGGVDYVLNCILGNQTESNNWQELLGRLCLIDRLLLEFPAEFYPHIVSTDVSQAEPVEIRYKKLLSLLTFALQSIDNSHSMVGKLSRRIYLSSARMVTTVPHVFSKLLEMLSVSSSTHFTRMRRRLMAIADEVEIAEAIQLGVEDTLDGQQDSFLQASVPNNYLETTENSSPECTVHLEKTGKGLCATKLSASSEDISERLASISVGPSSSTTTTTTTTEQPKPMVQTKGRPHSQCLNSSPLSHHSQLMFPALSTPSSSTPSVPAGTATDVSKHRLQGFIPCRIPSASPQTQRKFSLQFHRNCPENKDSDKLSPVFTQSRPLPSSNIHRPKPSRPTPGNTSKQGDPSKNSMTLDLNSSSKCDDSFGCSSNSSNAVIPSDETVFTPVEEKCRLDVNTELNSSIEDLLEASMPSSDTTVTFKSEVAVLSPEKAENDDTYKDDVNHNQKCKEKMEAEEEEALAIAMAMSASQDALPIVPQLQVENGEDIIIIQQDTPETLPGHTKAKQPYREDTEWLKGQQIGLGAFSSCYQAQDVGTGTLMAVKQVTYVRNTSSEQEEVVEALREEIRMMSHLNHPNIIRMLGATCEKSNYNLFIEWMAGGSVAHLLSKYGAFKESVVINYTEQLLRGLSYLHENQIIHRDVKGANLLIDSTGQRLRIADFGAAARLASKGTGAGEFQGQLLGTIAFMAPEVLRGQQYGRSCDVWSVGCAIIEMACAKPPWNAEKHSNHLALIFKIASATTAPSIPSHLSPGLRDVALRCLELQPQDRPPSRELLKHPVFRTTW
Vascular endothelial growth factor receptor 1, sequence (P17948 whole entry, the tested form may be a part): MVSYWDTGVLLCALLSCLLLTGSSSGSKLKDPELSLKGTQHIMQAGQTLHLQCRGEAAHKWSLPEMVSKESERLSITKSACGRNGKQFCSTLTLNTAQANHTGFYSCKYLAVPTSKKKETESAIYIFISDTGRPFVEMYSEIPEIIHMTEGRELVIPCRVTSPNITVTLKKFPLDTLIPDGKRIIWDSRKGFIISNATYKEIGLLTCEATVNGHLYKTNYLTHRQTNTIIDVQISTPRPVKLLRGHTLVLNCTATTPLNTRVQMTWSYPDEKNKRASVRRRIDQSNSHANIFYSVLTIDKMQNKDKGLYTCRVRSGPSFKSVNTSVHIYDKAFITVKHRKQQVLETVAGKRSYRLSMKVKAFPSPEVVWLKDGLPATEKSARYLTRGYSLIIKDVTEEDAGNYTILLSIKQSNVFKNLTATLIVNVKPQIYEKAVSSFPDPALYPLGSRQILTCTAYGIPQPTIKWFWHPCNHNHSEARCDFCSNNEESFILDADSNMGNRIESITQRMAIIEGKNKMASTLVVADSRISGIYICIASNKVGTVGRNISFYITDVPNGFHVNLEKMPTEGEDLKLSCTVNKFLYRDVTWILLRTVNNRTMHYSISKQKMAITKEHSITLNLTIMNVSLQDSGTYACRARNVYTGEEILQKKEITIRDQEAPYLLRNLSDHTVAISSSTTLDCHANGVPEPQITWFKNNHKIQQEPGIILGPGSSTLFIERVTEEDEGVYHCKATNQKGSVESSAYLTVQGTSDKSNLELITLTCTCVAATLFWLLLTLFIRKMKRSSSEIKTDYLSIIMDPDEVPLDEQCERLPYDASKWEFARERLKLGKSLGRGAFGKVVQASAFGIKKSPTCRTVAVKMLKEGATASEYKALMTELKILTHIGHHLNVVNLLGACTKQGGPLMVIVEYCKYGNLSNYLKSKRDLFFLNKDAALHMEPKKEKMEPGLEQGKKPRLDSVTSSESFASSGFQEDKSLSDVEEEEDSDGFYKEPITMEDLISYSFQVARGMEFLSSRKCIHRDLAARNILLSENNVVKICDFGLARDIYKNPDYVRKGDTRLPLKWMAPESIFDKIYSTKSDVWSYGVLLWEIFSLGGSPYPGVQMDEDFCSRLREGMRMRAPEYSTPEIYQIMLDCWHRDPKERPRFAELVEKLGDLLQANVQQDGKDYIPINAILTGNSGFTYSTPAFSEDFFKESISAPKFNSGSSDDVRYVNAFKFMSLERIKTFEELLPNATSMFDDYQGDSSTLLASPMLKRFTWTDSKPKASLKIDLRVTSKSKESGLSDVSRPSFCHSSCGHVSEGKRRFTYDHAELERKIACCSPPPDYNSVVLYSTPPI
Fibroblast growth factor receptor 2, sequence (P21802 whole entry, the tested form may be a part): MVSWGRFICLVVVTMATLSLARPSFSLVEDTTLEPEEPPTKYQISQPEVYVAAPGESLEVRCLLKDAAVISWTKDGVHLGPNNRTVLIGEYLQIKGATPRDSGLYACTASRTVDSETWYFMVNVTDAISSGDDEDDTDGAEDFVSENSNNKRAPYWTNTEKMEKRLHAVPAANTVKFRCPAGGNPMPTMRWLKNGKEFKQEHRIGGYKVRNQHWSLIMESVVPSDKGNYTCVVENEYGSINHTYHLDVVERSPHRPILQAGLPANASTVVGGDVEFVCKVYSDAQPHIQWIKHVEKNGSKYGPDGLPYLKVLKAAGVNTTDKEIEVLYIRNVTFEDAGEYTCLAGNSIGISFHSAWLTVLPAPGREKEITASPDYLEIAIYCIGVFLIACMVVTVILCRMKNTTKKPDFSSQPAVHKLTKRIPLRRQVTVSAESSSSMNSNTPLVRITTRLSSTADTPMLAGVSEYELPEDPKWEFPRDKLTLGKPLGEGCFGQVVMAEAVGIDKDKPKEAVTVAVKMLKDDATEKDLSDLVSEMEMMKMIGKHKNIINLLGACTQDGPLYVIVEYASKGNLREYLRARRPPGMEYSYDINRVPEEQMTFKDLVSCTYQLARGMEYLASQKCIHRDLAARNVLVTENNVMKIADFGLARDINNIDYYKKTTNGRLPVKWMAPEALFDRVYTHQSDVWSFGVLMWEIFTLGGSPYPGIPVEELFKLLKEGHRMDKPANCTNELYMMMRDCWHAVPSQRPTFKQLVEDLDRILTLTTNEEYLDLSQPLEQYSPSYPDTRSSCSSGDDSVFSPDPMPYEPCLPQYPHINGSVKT

As to `CN(CCc1ccc(-c2ccccc2)cc1)Cc1cn(C)c2ccc(C(=O)Nc3ccc(F)cc3)cc12`, the IC50 in series [1] came out at 16.9 µM; in series [2], 2.7 µM; in series [4], 7.8 µM; in series [5], 6.3 µM; in series [6], 6.3 µM; in series [7], 7.9 µM. The IC50 in series [8] stood at 10 µM; in series [9], 16 µM; in series [10] it was 18 µM; in series [11], 23 µM; in series [12], 43 µM; in series [13], 66 µM. Moreover, the IC50 in [14] is 69 µM; in [15], 90 µM; in series [16], over 100 µM; in series [17] it was over 100 µM; in series [18] it was over 100 µM. The Activity entry in series [3] is “Toxic”; in series [22] it was “Toxic”; in series [24], “Non-Toxic”. Further, the result in [19], in series [20] and in series [21] was Active. The result in [23] was inactive.

The term IC50 denotes the concentration that gives 50% inhibition.
